Measurements published in patent publication US9273317B2, “Methods and compositions for inhibiting the growth and/or proliferation of MYC-driven tumor cells” (Fred Hutchinson Cancer Research Center, priority 2011, dated 2016).

Experiments:
[1] = tested on: IMR-32 cells (MYCN+); assay: IC261 viability by CellTiter-Glo in IMR-32 cells; assay type: cell-based, human; conditions: 0-30 uM, 48 hrs
Method: (§1) a. HFF cell lines with or without c-Myc over-expression were treated with 0-10 uM IC261 for 48 hrs. The cells were exposed to CellTiter-Glo reagent and viability was assessed by ATP-induced chemiluminescence. Values indicate mean±SD. b. Tet21N cells with or without doxycyclin treatment and IMR-32 cells (MYCN+) were treated with 0-30 uM IC261 for 48 hrs. The cells were exposed to CellTiter-Glo reagent and the viability was assessed by ATP-induced chemiluminescence. Values indicate mean±SD. c. Cell growth curves for HFF-pBabe incubated with different concentrations of IC261. d. Cell growth curves for HFF-MYC incubated with different concentrations of IC261.
(§2) As there is strong selection to escape lentiviral-mediated silencing of genes that are necessary for cell growth, we proceeded to evaluate a small molecule inhibitor of CSNK1e enzymatic activity, IC261^33. […] A cohort of ten xenograft bearing mice was randomized into two groups with approximate equal tumor burden; one group was treated with daily subcutaneous injection of IC261 for 8 consecutive days, while the control group was treated with DMSO vehicle only. […] Taken together, the results obtained by genetic knock-down as well as via small molecule inhibitor validate CSNK1e as a potential therapeutic target for MYCN-driven neuroblastoma.

[2] = tested on: MYCN amplified neuroblastoma xenograft (IMR32); assay: IC261 treatment of MYCN amplified neuroblastoma xenograft; assay type: in vivo, NOD/SCID mice
Method: FIG. 3. IC261 treatment blocks MYCN amplified neuroblastoma tumor growth in vivo. a, Representative images of MYCN amplified neuroblastoma xenograft in NOD/SCID mice before and after treatment with either DMSO or IC261. Tumors were engrafted, and allowed to reach a size of about 100 mm^3, then IC261 (21.5 mg/kg) or DMSO was injected subcutaneously daily for 8 days. b, Quantitation of tumor size over the 8-day treatment regimen with either IC261 or DMSO control. Values represent mean tumor volume at each time point (n=5 for each group, error bars indicate SD). c, Immunohistochemical analysis of tumor sections from IC261 and DMSO treatment groups described in a and b. Representative images of H-E, TUNEL and BrdU staining for each group are shown. BrdU was administered 2 h before collection. d. Quantification of TUNEL positive cells and BrdU positive cells per field in DMSO or IC-261 treated xenograft tumors. Error bars indicate SD of means.
as §2

[3] = tested on: MYC overexpressing cells; assay: IC261 viability by CellTiter-Glo in cells with or without MYC overexpression; assay type: cell-based, human; conditions: 48 hrs, HFF with or without c-Myc, Tet21N with or without doxycyclin, IMR-32
Method: as §1, §2

[4] = tested on: HFF-pB; assay: High throughput siRNA screen, cell viability by Alamar Blue, control cells; assay type: cell-based, human; conditions: siRNA pool (3 siRNAs/pool), day 5, average of 3 replicates, relative to median of wells transfected with siRNA to luciferase
Method: FIG. 1. Identification of synthetic lethal genes with c-MYC overexpression by high throughput siRNA screening. a, Graphical schematic of the siRNA screen. HFF expressing either c-MYC or transduced with an empty retroviral vector, pB, were plated in 384 well plates. 24 hr later they were transfected with siRNA pools (3 siRNAs/pool) targeting a total of ˜3,311 genes, with one gene targeted per well. At day 5, the viability was quantified utilizing an Alamar Blue staining assay and an EnVision plate reader. b, Graphical representation of cell viability as affected by each siRNA pool in both HFF-pB or HFF-c-MYC and quantified as % relative to mock (on a log10 scale). Values represent the average viability of 3 replicates. […] Relative levels of each gene were calculated using the ΔΔCT method and using GAPDH to normalize mRNA levels within each sample. d, Viability of HFF-pBabe and HFF-Myc following stable, lentiviral based knock-down of MYC-SL genes CSNK1e, PES1 and CECR2. […] Y-axis indicates the % of cells stained with anti-γ-H2AX that scored for nuclear fluorescence levels above a negative control established threshold. Quantitation was obtained by automated microscopy in 96 well format, from triplicate samples. g, Quantitative assessment of Caspase-3 and -7 cleavage following transfection of the same siRNA pools as above (measured by the CaspaseGlo kit, Promega). […]

[5] = tested on: HFF-MYC; assay: High throughput siRNA screen, cell viability by Alamar Blue, c-MYC overexpressing cells; assay type: cell-based, human
Method: FIG. 1. Identification of synthetic lethal genes with c-MYC overexpression by high throughput siRNA screening. a, Graphical schematic of the siRNA screen. HFF expressing either c-MYC or transduced with an empty retroviral vector, pB, were plated in 384 well plates. 24 hr later they were transfected with siRNA pools (3 siRNAs/pool) targeting a total of ˜3,311 genes, with one gene targeted per well. At day 5, the viability was quantified utilizing an Alamar Blue staining assay and an EnVision plate reader. b, Graphical representation of cell viability as affected by each siRNA pool in both HFF-pB or HFF-c-MYC and quantified as % relative to mock (on a log10 scale). Values represent the average viability of 3 replicates. A set of siRNAs (targeting 102 genes labeled as light shaded+) caused differential loss of viability (Z score>2) in the HFF-MYC versus control pB. An additional set of siRNAs targeting 20 genes caused selective growth advantage to HFF-MYC. c, CSNK1e, PES1 and CECR2 mRNA levels following lentiviral-mediated shRNA knock-down. Relative levels of each gene were calculated using the ΔΔCT method and using GAPDH to normalize mRNA levels within each sample. d, Viability of HFF-pBabe and HFF-Myc following stable, lentiviral based knock-down of MYC-SL genes CSNK1e, PES1 and CECR2. […] Y-axis indicates the % of cells stained with anti-γ-H2AX that scored for nuclear fluorescence levels above a negative control established threshold. Quantitation was obtained by automated microscopy in 96 well format, from triplicate samples. g, Quantitative assessment of Caspase-3 and -7 cleavage following transfection of the same siRNA pools as above (measured by the CaspaseGlo kit, Promega). […]
We employed a high throughput robotics-based approach for massive parallel testing of an arrayed siRNA library to accurately quantify the effects of siRNAs against ˜3,300 druggable genes and 200 microRNAs on the viability of HFF-MYC (stably transduced with a retroviral vector expressing c-MYC), or a control empty vector, HFF-pB^14, see FIG. 1a for schematic of the experimental set-up). […]

| Compound | sensitivity to IC261 in vitro [1] | tumor growth ([2]; 21.5 mg/kg subcutaneously daily for 8 days) | apoptosis by TUNEL staining of tumor tissue ([2]; after IC261 treatment) | BrdU labeling of tumor tissue ([2]; after IC261 treatment, BrdU 2 h before collection) | differences in IC50, MYC overexpressing versus normal or low MYC expressing cells [3] | % Viability HFF-pB [4] | Z score (>than) ([5]; differential loss of viability HFF-MYC versus HFF-pB) | Ratio pBabe/Myc ([5]; ratio of percent viability of a given siRNA pool in HFF-pB/HFF-MYC) | % Viability HFF-MYC ([5]; siRNA pool (3 siRNAs/pool), day 5, average of 3 replicates, relative to median of wells transfected with siRNA to luciferase) |
| --- | --- | --- | --- | --- | --- | --- | --- | --- | --- |
| COc1cc(OC)c(C=C2C(O)=Nc3ccccc32)c(OC)c1 [IC261] | highly sensitive | effective in halting tumor growth in all treated mice | very little apoptosis was detected | marked decrease in BrdU labeling | > 100 fold |  |  |  |  |
| CTPS |  |  |  |  |  | 70.57% | > 2.5 | 3.63 | 19.44% |
